The source of these data is US20250127759A1, “METHODS AND DOSING REGIMENS COMPRISING A CDK2 INHIBITOR FOR THE TREATMENT OF CANCER” (PFIZER INC., priority 2021, published 2025).

Marks after values point to notes of the source that are not given here.

The subject of one test is HCC1428. Nature of the test: In vivo efficacy, HCC1428 breast cancer model. The conditions noted are these: Day 42, 10 mg/kg BID PO, 10 mg/kg. Also on record: species or system mice. On the procedure: The HCC1428 model was established by implanting passage 4 tumor fragments into recipient mice. To establish the HCC1428 donor mice, tumor cells (5×10^6 cell/mouse with 50% Cultrex® Basement Membrane Matrix) were subcutaneously implanted in female NSG mice. […] All mice received treatment continuously until Day 42. TGI was assessed on Day 42 post first dose.

Another test has as its system T-47D Cells. Kind of test: Combination cell proliferation assay, T47D. The class given is cell-based, human. On the procedure:
(§1) The combination effects of PF-07104091 with palbociclib were evaluated in a cell proliferation assay with MCF7 and T47D BC cell lines. […] Drug combinations were analyzed using the Dose Equivalence Principle, and the Loewe Volume score. When modeling synergy using the Dose Equivalence Principle, the Loewe Volume score for the combination compounds should be greater than the compound self-cross controls, and the Combination Index score for the combination compounds should be less than compound self-cross controls. […] Furthermore, the isobolograms set to an anti-proliferation threshold at 70% confirm a synergistic response.

The next test relates to MCF7 Cells. Nature of the test: Combination cell proliferation assay, MCF7. The class given is cell-based, human. How it is done: as §1
A further test concerns ST941PBR PDX. Kind of test: In vivo efficacy, palbociclib-resistant ST941PBR PDX model. To be noted: Day 28, 10 mg/kg BID PO.
The subject of the next test is T47D. Kind of test: In vivo efficacy, T47D breast cancer model. Also noted: species or system mice. The conditions noted are these: Day 41, 10 mg/kg BID PO. On the procedure:
The T47D model was established by implanting passage 3 tumor fragments into recipient mice. To establish the T47D donor mice, tumor cells (5×10^6 cell/mouse with 50% Cultrex® Basement Membrane Matrix) were subcutaneously implanted in female NSG mice. […] All mice received treatment continuously until Day 41. TGI was assessed on Day 41 post first dose.

For a further test, the system named is NCI-H526 Model. Nature of the test: In vivo efficacy, NCI-H526 small cell lung cancer model. Also on record: species or system mice. On the procedure:
Female NSG (Jackson Lab) or Nu/nu (CRL) were subcutaneously implanted with tumor cells or fragments (8 mm^3 to 27 mm^3) into the dorsal region. For the MCF7 study, mice were supplemented with estrogen (sc implanted, 17β-estradiol, 0.36 mg, 90-day release pellet, Innovative Research of America, cat no. NE-121).
To establish the NCI-H526 model, tumor cells (4×10^6 cells/mouse with 50% Cultrex® Basement Membrane Matrix) were subcutaneously implanted in female Nu/nu mice. […] PF-07104091, Palbociclib at 10 mg/kg and CDK 2/4/6 inhibitor were administered (p.o.) BID (7 hr apart). TGI was assessed on Day 15 post first dose (or Day 20 post tumor cell implant).

Protocol for ST941PBR PDX: Female NSG mice (Jackson Lab) were subcutaneously implanted with fragment (27 mm^3 to 64 mm^3 size) into the dorsal region. All mice for T47D, HCC1428 and ST941 PBR studies were supplemented with 8.5 μg/mL estradiol water (β-Estradiol Sigma-Aldrich, cat #E2758-5G) and gave ad libitum till end of study. For the in vivo efficacy studies, tumor volume and body weights were measured twice a week. Tumor volume was calculated using the [(Length×Width×Width)/2)] formula. TGI was calculated as 100*(1−ΔT/ΔC). The ΔC (ΔT) was obtained by subtracting the mean tumor burden in the vehicle (treated) group on the first day of treatment (Day 0) from the mean tumor burden in vehicle (treated) group on the assessment day. Statistical analysis was performed using ANCOVA when the mean tumor volume in vehicle treated mice reached tumor cutoff size.
The ST941 PBR palbociclib resistant model was obtained from XENOSTART™ LLC, San Antonio, Texas. We established model in house by continuous treatment of the ST941 PBR tumor bearing mice with PD-0332991 at 50 mg/kg, PO QD plus fulvestrant at 10 mg/kg, SC twice in the first week, then weekly thereafter. To propagate donors for the TGI study, tumors were transplanted to recipient mice. One week after the re-implantation, the recipient mice received continuous treatment with palbociclib plus fulvestrant (dosing schedule described above). After 1 to 2 serial in vivo propagation with the same treatment regimen, the resistant tumors in the range of 700 to 800 mm^3 were re-implanted for a study expansion. The remaining tumor fragments were viably frozen for future use.
The live donor mice were established by implanting ST941 PBR (p11) tumor fragments. Once reaching a range of 700 to 800 mm^3, the donor tumors were subsequently transplanted into secondary recipient mice for a study expansion. To maintain the resistant clones, the ST941 PBR tumor bearing mice were treated with PD-0332991 at 50 mg/kg, PO. QD plus fulvestrant at 10 mg/kg, SC twice in the first week, then weekly afterwards for 10 weeks. […] TGI was assessed on Day 28 post first dose.

For the molecule `CC(=O)c1c(C)c2cnc(Nc3ccc(N4CCNCC4)cn3)nc2n(C2CCCC2)c1=O` [Palbociclib, palbociclib, reference compound], the TGI % was 44* % in the test with HCC1428; 44% in the test on HCC1428 (listed as palbociclib); 15% in the test with ST941PBR PDX; 72* % in the test on T47D; 33% with NCI-H526 Model (10 mg/kg BID PO, Day 15); 33% in the test with NCI-H526 Model (10 mg/kg BID PO, Day 15, listed as palbociclib). In addition, the TGI % in the test with NCI-H526 Model (50 mg/kg SID PO, Day 15) worked out at 22%; in the test on NCI-H526 Model (50 mg/kg SID PO, Day 15, listed as palbociclib), 22%. Moreover, the “Loewe Volume” value is −0.25 in the test with T-47D Cells and −0.16 with MCF7 Cells. Moreover, the figures for the “Best CI” value with T-47D Cells (Best CI Level 70) and in the test on MCF7 Cells (Best CI Level 70) were 0.96 and 0.94, respectively.
